Test results from the OligoGym collection.
HELM strings list units from the 5' end as sugar, base in round brackets, then linkage (d deoxyribose, r ribose, m 2'-O-methyl, p phosphodiester). Strings are as the collection lists them; they lack the last nucleoside at the 3' end of the tested compound. [moe] = 2'-O-(2-methoxyethyl) (MOE); [sp] = phosphorothioate linkage; [m5C] = 5-methylcytosine

Molecular target: C9ORF72
Experiment: mouse, dose not given
Settings: ASO

First: RNA1{[moe]([m5C])[sp].[moe]([m5C])p.[moe](T)p.[moe](A)p.[moe](G)p.[moe]([m5C])[sp].d(G)[sp].d([m5C])[sp].d(G)[sp].d([m5C])[sp].d(G)[sp].d(A)[sp].d([m5C])[sp].d(T)[sp].[moe]([m5C])p.[moe]([m5C])[sp].[moe](T)}$$$$ (last 3' nucleoside missing)
Second: RNA1{[moe]([m5C])[sp].[moe]([m5C])p.[moe]([m5C])p.[moe](T)[sp].d(A)[sp].d(G)[sp].d([m5C])[sp].d(G)[sp].d([m5C])[sp].d(G)[sp].d([m5C])[sp].d(G)[sp].[moe](A)p.[moe]([m5C])p.[moe](T)p.[moe]([m5C])[sp].[moe]([m5C])}$$$$ (last 3' nucleoside missing)
The 3 h FOB score of the first is higher: 6 score 0-7 for the first, 1 score 0-7 for the second.

First: RNA1{[moe]([m5C])[sp].[moe]([m5C])p.[moe]([m5C])p.[moe](T)p.[moe](A)p.[moe](G)[sp].d([m5C])[sp].d(G)[sp].d([m5C])[sp].d(G)[sp].d([m5C])[sp].d(G)[sp].d(A)[sp].d([m5C])[sp].[moe](T)p.[moe]([m5C])[sp].[moe]([m5C])}$$$$ (last 3' nucleoside missing)
Second: RNA1{[moe]([m5C])[sp].[moe]([m5C])p.[moe]([m5C])p.[moe](T)p.[moe](A)p.[moe](G)p.d([m5C])[sp].d(G)[sp].d([m5C])[sp].d(G)[sp].d([m5C])[sp].d(G)[sp].d(A)[sp].d([m5C])[sp].d(T)[sp].d([m5C])[sp].[moe]([m5C])p.[moe](T)[sp].[moe](G)}$$$$ (last 3' nucleoside missing)
The 3 h FOB score of the first is higher: 3 score 0-7 for the first, 1.25 score 0-7 for the second.

First: RNA1{[moe]([m5C])[sp].[moe]([m5C])p.[moe]([m5C])p.[moe](T)p.d(A)[sp].d(G)[sp].d([m5C])[sp].d(G)[sp].d([m5C])[sp].d(G)[sp].d([m5C])[sp].d(G)[sp].d(A)[sp].d([m5C])[sp].[moe](T)p.[moe]([m5C])p.[moe]([m5C])p.[moe](T)[sp].[moe](G)}$$$$ (last 3' nucleoside missing)
Second: RNA1{[moe]([m5C])[sp].[moe]([m5C])p.[moe]([m5C])p.[moe]([m5C])[sp].d(T)[sp].d(A)[sp].d(G)[sp].d([m5C])[sp].d(G)[sp].d([m5C])[sp].d(G)[sp].d([m5C])[sp].[moe](G)p.[moe](A)p.[moe]([m5C])p.[moe](T)[sp].[moe]([m5C])}$$$$ (last 3' nucleoside missing)
The 3 h FOB score of the first is higher: 1.75 score 0-7 for the first, 1 score 0-7 for the second.

Compared with “RNA1{[moe]([m5C])[sp].[moe]([m5C])p.[moe]([m5C])p.[moe]([m5C])p.[moe](T)p.[moe](A)[sp].d(G)[sp].d([m5C])[sp].d(G)[sp].d([m5C])[sp].d(G)[sp].d([m5C])[sp].d(G)[sp].d(A)[sp].[moe]([m5C])p.[moe](T)[sp].[moe]([m5C])}$$$$ (last 3' nucleoside missing)”, “RNA1{[moe]([m5C])[sp].[moe]([m5C])p.[moe]([m5C])p.[moe]([m5C])p.[moe](T)p.[moe](A)p.d(G)[sp].d([m5C])[sp].d(G)[sp].d([m5C])[sp].d(G)[sp].d([m5C])[sp].d(G)[sp].d(A)[sp].d([m5C])[sp].d(T)[sp].[moe]([m5C])p.[moe]([m5C])[sp].[moe](T)}$$$$ (last 3' nucleoside missing)” is higher in 3 h FOB score: 2 score 0-7 for the first, 6 score 0-7 for the second.

“RNA1{[moe]([m5C])[sp].[moe]([m5C])p.[moe]([m5C])p.[moe]([m5C])p.d(T)[sp].d(A)[sp].d(G)[sp].d([m5C])[sp].d(G)[sp].d([m5C])[sp].d(G)[sp].d([m5C])[sp].d(G)[sp].d(A)[sp].[moe]([m5C])p.[moe](T)p.[moe]([m5C])p.[moe]([m5C])[sp].[moe](T)}$$$$ (last 3' nucleoside missing)” showed a 3 h FOB score of 3.75 score 0-7.
